The source of these data is US12648948B2, “Methods and compositions for treating cancer” (UNITED STATES GOVERNMENT AS REPRESENTED BY THE DEPARTMENT …, priority 2017, dated 2026).

Each structure is given as a SMILES string.

The subject of one data set is Akt, STAT3. The experiment in a line: Western blot, Akt and STAT3 activation in glioma cells. In kind it is cell-based, human. The method, then:
(§1) Western blot analysis was performed according to standard protocols.
(Immunoblotting shows a protein as a band on a membrane.)

The test system of another data set is Met. The experiment in a line: Western blot, Met activation in glioma cells. It counts as cell-based, human. As to conditions: erlotinib; established cell lines and patient derived neurospheres. How it is done:
as §1

The subject of data set [1] is NF-κB transcriptional activity. Put plainly: NF-κB luciferase reporter assay. In kind it is cell-based, human. Conditions: erlotinib 24 h, 100 nM GBM9, 1 uM U87EGFRwt; LPS 1 μg/ml. How it is done: Cells were plated in 48 well dishes to 70%-80% confluence followed by with […] or 3xAP1pGL3 reporter plasmid using lipofectamine 2000. A dual-luciferase reporter assay system was used according to manufacturer's instructions (Promega, Madison WI). Firefly luciferase activity was measured in a luminometer and normalized on the basis of Renilla luciferase activity. Experiments were done in triplicate and 3 independent experiments were done.
On the technique in general: In a reporter assay the amount or activity of a reporter protein is the signal.

A further data set has as its system GAS6. The experiment in a line: GAS6 expression (real time PCR, ELISA, Western blot). It counts as cell-based, human. As to conditions: erlotinib; patient derived neurospheres and established GBM cell lines. The method, then: Total RNA was isolated by TRIzol Reagent (Ambion). cDNA Reverse Transcription were performed by using High-Capacity cDNA Reverse Transcription Kit (Applied Biosystems). […] Each PCR was carried out in triplicate in a 20 μl volume using SYBR Green Master Mix (Applied Biosystems) for 15 minutes at 95° C. for initial denaturing, followed by 40 cycles of 95° C. for 15 s and 60° C. for 60 s in ViiA 7 Real-Time PCR System (Applied Biosystems). At least two independent experiments were done. Values for each gene were normalized to expression levels of GAPDH mRNA. The following primers were used: TNF, [NT] ID NO:3) and [NT] ID NO:4); […] GAPDH, [NT] ID NO:7) and [NT] ID NO:8). […] After 48 hours, supernatant and cell lysates were collected. Supernatant medium was concentrated 5-10-fold with Pierce protein concentrator (ThermoFisher). TNF protein concentration in supernatant, cell lysates and tissue extracts was determined by ELISA using a commercial TNF detection kit (ThermoFisher) according to manufacturer's instructions. Additionally, GAS6 protein concentration in supernatant was measured by ELISA kit (LifeSpan BioSciences).

The subject of a further data set is GAS6 promoter. The experiment in a line: ChIP assay, c-Jun on the GAS6 promoter. In kind it is cell-based, human. Conditions: erlotinib 1 μM, 24 h; GBM9 and U87EGFRwt cells. The method, then: GBM9 and U87EGFRwt cells were cultured in 15 cm plate per reaction for assay. ChIP assays were carried out using ChIP chromatin immunoprecipitation kit (Millipore) following manufacturer's instructions. The ChIP-enriched DNA samples were quantified by PCR using Platinum Taq DNA polymerase (Invitrogen). Putative AP-1 binding sites on GAS6 promoter were predicted by Using TFBIND program. The following primer pairs covering AP-1 sites were used: 5′-[…]-3′ (SEQ ID NO:1) and 5′-[…]-3′ (SEQ ID NO:2).

The next data set relates to TNF. Put plainly: TNF mRNA (qRT-PCR) and TNF ELISA in glioma cells. It counts as cell-based, human. How it is done: Total RNA was isolated by TRIzol Reagent (Ambion). cDNA Reverse Transcription were performed by using High-Capacity cDNA Reverse Transcription Kit (Applied Biosystems). PCR primers were synthesized by IDT (Coralville, IA). Each PCR was carried out in triplicate in a 20 μl volume using SYBR Green Master Mix (Applied Biosystems) for 15 minutes at 95° C. for initial denaturing, followed by 40 cycles of 95° C. for 15 s and 60° C. for 60 s in ViiA 7 Real-Time PCR System (Applied Biosystems). At least two independent experiments were done. Values for each gene were normalized to expression levels of GAPDH mRNA.
2×10^6 cells were incubated in serum-free or EGF free medium containing different concentrations of erlotinib or DMSO. After 48 hours, supernatant and cell lysates were collected. Supernatant medium was concentrated 5-10-fold with Pierce protein concentrator (ThermoFisher). TNF protein concentration in supernatant, cell lysates and tissue extracts was determined by ELISA using a commercial TNF detection kit (ThermoFisher) according to manufacturer's instructions. Additionally, GAS6 protein concentration in supernatant was measured by ELISA kit (LifeSpan BioSciences).

Data set [2] concerns GBM9 and GBM39 neurospheres. Put plainly: AlamarBlue cell viability assay, patient derived GBM neurospheres. It counts as cell-based, human. Conditions: 72 h. How it is done:
(§2) Cell viability assay was conducted using AlamarBlue cell viability assay kit (ThermoFisher) following manufacturer's protocol. Cells were cultured in Corning 96-well black plates with clear bottom (5000 cells/well). Drugs were added to cells for 72 hour following detection using POLARstar Omega Microplate Reader (excitation at 544 nm and emission at 590 nm) (BMG LABTECH, Germany).
In general terms: Alamar Blue is a resazurin reagent that responds to reducing activity.

Data set [3] relates to U87EGFRwt and U87EGFRvIII cells. The experiment in a line: AlamarBlue cell viability assay, established GBM cell lines. It counts as cell-based, human. Conditions: established GBM cell lines expressing EGFRwt or EGFRvIII, erlotinib 10 μM. How it is done: as §2
The conditions of data set [4]: mouse, in vivo.
The test system of the next data set is GBM. Conditions: human, in vivo; cited from earlier work.
The test system of the next data set is ERK. Put plainly: Western blot, ERK activation (pERK) in glioma cells. Conditions: GBM9 neurospheres.
Data set [5] can be described thus: Toxicity and body weight of treated tumor-bearing mice. Conditions: in combination with thalidomide or SP600125, total of 10 days.
A further data set relates to GBM9 intracranial tumors. The experiment in a line: Orthotopic (intracranial) GBM9 model, survival and bioluminescence imaging. Conditions: erlotinib 50 mg/kg oral gavage and/or thalidomide 150 mg/kg i.p., 10 days; repeated with afatinib.

Description for ERK: Western blot analysis was performed according to standard protocols. In all experiments, before the addition of EGF or erlotinib established cells were cultured overnight in serum free DMEM and primary GBM neurospheres were EGF starved overnight. Cells not treated with EGF or erlotinib were also serum or EGF starved.
Description for GBM9 intracranial tumors: For the orthotropic model, 1×10^5 GBM9 cells expressing firefly luciferase were injected into the right corpus striatum of the brains of 6-8-week-old nude mice using a stereotactic frame. […] The mice were treated with erlotinib 50 mg/kg by oral gavage and/or intraperitoneal (i.p.) injection of 150 mg/kg thalidomide for 10 consecutive days. Bioluminescence imaging (BLI) was performed to record the growth of tumor every 5 days. Kaplan-Maier survival curves were calculated using GraphPad Prism 7.0 software. Mice were monitored and sacrificed when neurological signs appeared or after 40 days.

In the case of `C#Cc1cccc(Nc2ncnc3cc(OCCOC)c(OCCOC)cc23)c1` [erlotinib], the “Akt or STAT3 activation” value in the data set with Akt, STAT3 (GBM9 neurospheres, erlotinib 1 μM) is recorded as “did not detect an increase in Akt or STAT3 activation”. Besides, in the data set on Akt, STAT3 (glioma cells, erlotinib 10 μM or afatinib 10 μM), the “STAT3 and Akt activation at higher concentration” value is “STAT3 and Akt activation are suppressed”. Further, the Met activation entry in the data set on Met is reported as “induces activation of Met in established cell lines, but only in one patient derived neurosphere 987”. Moreover, the “NF-κB reporter / transcriptional activity” value in data set [1] is “does not result in an increase in NF-κB reporter activity”. Besides, the GAS6 expression entry in the data set with GAS6 is given as “increase in GAS6”. For the same compound, the “Binding of c-Jun to the GAS6 promoter” value with GAS6 promoter is on record as “binding of cJun to the GAS6 promoter”. Further, in the data set on TNF (GBM622 neurospheres (very low EGFR), erlotinib 100 nM, 24 h), the “TNF mRNA in GBM622 cells” value was “No increase in TNF is detected”. Also, the “TNF mRNA levels” value in the data set with TNF (erlotinib 100 nM (GBM9, GBM39) or 1 μM (U87EGFRwt, U87EGFRvIII)) was “significant and rapid increase in TNF mRNA levels”. For the same compound, in the data set with TNF (supernatants of erlotinib treated cells), the “TNF protein level (ELISA)” value was “increase in TNF was confirmed at a protein level”. The “Cell viability, erlotinib alone at low concentration” value in data set [2] (erlotinib 100 nM) was “resistant to EGFR inhibition”. In [2] (erlotinib 1 μM), the “Cell viability, erlotinib alone at 1 μM” value is “significant cell death”. In addition, in data set [3], the “Cell viability, erlotinib alone” value is recorded as “completely resistant”. In addition, in data set [4], the “Body weight of orthotopic models” value is reported as “Body weight losses”. The “Clinical efficacy in GBM patients” value in the data set with GBM was “also not effective”. In addition, the “ERK activation after addition of erlotinib” value in the data set with ERK (erlotinib 1 μM, early time points) was “decreased after addition of erlotinib”. Further, in the data set with ERK (erlotinib 1 μM or afatinib 100 nM), the “Feedback reactivation of ERK under continued EGFR inhibition” value was “reactivation of ERK is seen at 24-48 h”. In addition, in data set [5], the Short term toxicity result was “without significant immediate short term toxicity”. The Survival of mice entry in the data set on GBM9 intracranial tumors was “neither erlotinib nor thalidomide alone had a significant effect”.
